Reference: patent US20240252670A1, “ANTIBODY DRUG CONJUGATE, PREPARATION METHOD THEREFOR AND APPLICATION THEREOF” (TSINGHUA UNIVERSITY, priority 2021, published 2024)

Tests used:
MC38 cells = experiment: Internalization of pHrodo red labeled anti-PD-L1 THIOMAB in cancer cells (IncuCyte); assay type: cell-based, mouse; conditions: 24 h, pHrodo red labeled antibody, control 84.88
Protocol: (§1) After MC38 and B16 cells were treated for 24 hours with anti-PD-L1 THIOMAB labeled with pHrodo™ red dye, A. high-definition phase images, red fluorescence images and combined images of cells were collected by using an IncuCyte® viable cell system; B. a total red object integrated intensity histogram was obtained by analysis using IncuCyte® software, wherein the logarithm of 10 was taken for the ordinate data. Student's t test was used to compare significant differences between the groups, and p<0.0001 is represented by ****.
(§2) The pHrodo™ red dye is known to be a pH sensitive fluorescent dye, which rapidly increases in molecular fluorescence intensity when the surrounding environment becomes acidic (Lehrman et al., 2018). When the dye was internalized into the cells along with the antigen-antibody complex, the pH of the environment around the dye was reduced to acidity, thereby producing an observable fluorescence signal. This property allowed the internalization process of the antibody to be monitored by using the pHrodo™ red dye. Through the IncuCyte® viable cell analysis system, the inventors could perform image-based monitoring and quantitative analysis on the internalization process of the anti-PD-L1 antibody labeled with the pHrodo™ red dye. […]

B16 cells = experiment: as above; assay type: cell-based, mouse; conditions: 24 h, pHrodo red labeled antibody, control 98.53
Protocol: as §1, §2

[1] = molecular target: T1, PD-L1 on MC38 cell surfaces (Mus musculus, UniProt Q9EP73); experiment: FACS detection of antigen-binding capacity on PD-L1 positive MC38 cells (FITC secondary antibody)
T1 construct: endogenous in cells; host or cells: MC38 cells
Protocol: MC38 cells were treated with anti-PD-L1 antibody, anti-PD-L1 THIOMAB and ADC HE-S2, and then stained with FITC-labeled goat anti-human secondary antibody; the FITC signal intensity on MC38 surfaces was analyzed by FACS technique detection. A. The histograms of different colors represent, from top to bottom, the fluorescence signals measured for the negative control (NC) group, the secondary antibody group, the anti-PD-L1 antibody group, the anti-PD-L1 THIOMAB group, and the ADC HE-S2 group, respectively. B. Mean fluorescence intensity (MFI) measured after treatment with different antibody-based drugs on MC38. NC group: the negative control only added with the isotype antibody, with no secondary antibody added for staining; secondary antibody group: the control group added with the isotype antibody and stained with fluorescent secondary antibody. […]
With PD-L1 positive MC38 as a platform, the inventors verified whether ADC HE-S2 and the gene-modified anti-PD-L1 THIOMAB retained the original antibody-antigen binding capacity by using a fluorescence activated cell sorting (FACS) technique. […] The stained MC38 cells were analyzed on a BD FACSAria™ III flow cytometer, and the strength of FITC fluorescence signals on MC38 cells treated with different antibody-based drugs was detected and compared, so as to characterize the affinity of ADC, THIOMAB and antibodies to PD-L1.

T1 sequence (Q9EP73 19-290): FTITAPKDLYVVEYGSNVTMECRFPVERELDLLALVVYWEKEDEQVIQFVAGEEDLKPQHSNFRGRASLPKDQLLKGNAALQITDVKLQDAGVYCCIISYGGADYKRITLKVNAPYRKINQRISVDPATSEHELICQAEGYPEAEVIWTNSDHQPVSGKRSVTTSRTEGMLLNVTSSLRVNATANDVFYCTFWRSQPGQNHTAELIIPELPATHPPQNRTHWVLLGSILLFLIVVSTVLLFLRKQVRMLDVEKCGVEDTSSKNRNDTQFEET

Substance: anti-PD-L1 THIOMAB: mutant avelumab, light chain V205C (SEQ ID NO: 9), heavy chain SEQ ID NO: 4; pHrodo red labeled in internalization tests
- total red object integrated intensity (MC38 cells): 13701.63
- total red object integrated intensity (B16 cells): 283613.60
- MFI compared with the natural anti-PD-L1 antibody (Student's t test) [1]: no significant difference
